Among the data in patent US20030158199A1, “Novel compounds for inhibition of Tie-2” (KYLIX, B.V., priority 2002, published 2003) are IC50 values, retold here.

Counter-ions that a name gives are not always drawn.

Holding throughout (format): biochemical
For one experiment, the target named is T1, Tie-2 (Homo sapiens, UniProt Q02763).
T1 construct: GST-Tie2/Tek (aa 771-1124); GST (N); purchased ProQuinase, Freiburg; host or cells: baculovirus infected insect cells Sf9
Put plainly: RTK ELISA, recombinant kinase domain, Tie-2. Conditions: GST-Tie2/Tek (aa 771-1124) expressed in baculovirus infected insect cells. The procedure:
(§1) Follwing IC50 values were determined in the RTK ELISA using recombinant kinase domains of receptor tyrosine kinases which were expressed in baculovirus infected insect cells.
(§2) Receptor Tyrosine Kinase Assay
(§3) The following in vitro assays are used to determine the ability of different compounds to inhibit the transfer of phosphate groups onto tyrosine residues of downstream substrates. The level of phosphorylation is measured by a monoclonal antibody which is specific for phosphorylated tyrosine residues in an enzyme-linked immunosorbent assay (ELISA).
(§4) The following recombinant kinases were expressed in baculovirus infected insect cells Sf9 and purchased from ProQuinase, Freiburg:
(§5) If not otherwise indicated all steps are performed at room temperature.
(§6) 1.) Coat wells of ELISA plate with […] Poly-Glu-Tyr 4:1 in 100 μl/well PBS buffer (137 mM NaCl, 3 mM KCl, 1.5 mM KH2PO4, 8.2 mM Na2HPO4) overnight at 4° C.
(§7) 2.) Wash 2 times for 5 min each with PBS+0.05% Tween20 […]
(§8) a) Add 5-30 ng/well kinase in 50 μl/well kinase buffer (100 mM HEPES pH 7.4, 100 mM NaCl, 0.1 mM Na3VO4) b) Add 25 μl/well compound (50 and 5 μM) in 5% DMSO c) Add 25 μl/well 100 μM ATP in 40 mM MnCl2
(§9) 4.) Wash 3 times for 5 min each with PBS+0.05% Tween20
(§10) 5.) Add anti phosphotyrosin antibody/HRP 1:10.000 in 100 μl/well PBS+0.05% Tween+0.1 BSA, incubate for 1 h
(§11) 6.) Wash 3 times for 5 min each with PBS+0.05% Tween20
(§12) 7.) Chemoluminescence reaction: a.) Premix 25 μl/well BM CLS Solution 1 with 0.25 μl/well BM CLS Solution 2 b.) Preincubate for 15 min […]
(§13) d.) Add 50 μl/well substrate solution to microtiter wells e.) Incubate for at least 1 min
(§14) 8.) Detect chemoluminescence signals in Tecan Genios reader

The target of another experiment is T2, c-Met (Homo sapiens, UniProt P08581).
T2 construct: GST-cMet (aa956-1390); GST (N); purchased ProQuinase, Freiburg; host or cells: baculovirus infected insect cells Sf9
Put plainly: RTK ELISA, recombinant kinase domain, c-Met. Particulars: GST-cMet (aa956-1390) expressed in baculovirus infected insect cells. The protocol:
as §1, §2, §3, §4, §5, §6, §7, §8, §9, §10, §11, §12, §13, §14
In general terms: ELISA stands for enzyme-linked immunosorbent assay.

The next experiment deals with T3, KDR (Homo sapiens, UniProt P35968).
T3 construct: GST-KDR (aa807-1356); GST (N); purchased ProQuinase, Freiburg; host or cells: baculovirus infected insect cells Sf9
Briefly: RTK ELISA, recombinant kinase domain, KDR. Particulars: GST-KDR (aa807-1356) expressed in baculovirus infected insect cells. The protocol:
as §1, §2, §3, §4, §5, §6, §7, §8, §9, §10, §11, §12, §13, §14

T2 sequence (P08581 956-1390): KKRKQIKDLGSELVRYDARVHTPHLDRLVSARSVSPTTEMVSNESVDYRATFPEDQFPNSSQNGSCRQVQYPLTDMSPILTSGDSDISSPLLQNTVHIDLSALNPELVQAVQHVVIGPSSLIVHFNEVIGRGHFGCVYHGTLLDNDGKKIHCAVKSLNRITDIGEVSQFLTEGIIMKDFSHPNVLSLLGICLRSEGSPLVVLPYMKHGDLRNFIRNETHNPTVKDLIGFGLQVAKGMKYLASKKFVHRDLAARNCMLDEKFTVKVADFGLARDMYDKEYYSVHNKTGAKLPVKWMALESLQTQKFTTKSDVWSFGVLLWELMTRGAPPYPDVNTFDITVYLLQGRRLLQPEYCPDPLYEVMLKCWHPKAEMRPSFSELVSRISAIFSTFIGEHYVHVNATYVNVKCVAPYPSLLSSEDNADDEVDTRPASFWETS
T3 sequence (P35968 807-1356): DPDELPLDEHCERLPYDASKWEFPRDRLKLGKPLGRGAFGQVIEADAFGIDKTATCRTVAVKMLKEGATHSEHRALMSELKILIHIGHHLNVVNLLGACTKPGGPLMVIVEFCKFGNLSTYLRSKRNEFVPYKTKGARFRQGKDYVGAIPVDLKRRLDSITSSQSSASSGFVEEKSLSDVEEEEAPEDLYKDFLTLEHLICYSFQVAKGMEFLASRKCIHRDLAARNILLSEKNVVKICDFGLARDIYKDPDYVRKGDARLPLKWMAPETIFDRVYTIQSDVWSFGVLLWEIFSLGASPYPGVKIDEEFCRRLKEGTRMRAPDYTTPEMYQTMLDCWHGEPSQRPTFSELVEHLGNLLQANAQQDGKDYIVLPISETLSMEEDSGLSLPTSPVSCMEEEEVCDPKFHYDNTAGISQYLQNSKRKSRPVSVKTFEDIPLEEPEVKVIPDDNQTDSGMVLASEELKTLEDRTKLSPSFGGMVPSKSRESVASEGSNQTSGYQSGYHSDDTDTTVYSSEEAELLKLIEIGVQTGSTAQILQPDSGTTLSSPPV
T1 sequence (Q02763 771-1124): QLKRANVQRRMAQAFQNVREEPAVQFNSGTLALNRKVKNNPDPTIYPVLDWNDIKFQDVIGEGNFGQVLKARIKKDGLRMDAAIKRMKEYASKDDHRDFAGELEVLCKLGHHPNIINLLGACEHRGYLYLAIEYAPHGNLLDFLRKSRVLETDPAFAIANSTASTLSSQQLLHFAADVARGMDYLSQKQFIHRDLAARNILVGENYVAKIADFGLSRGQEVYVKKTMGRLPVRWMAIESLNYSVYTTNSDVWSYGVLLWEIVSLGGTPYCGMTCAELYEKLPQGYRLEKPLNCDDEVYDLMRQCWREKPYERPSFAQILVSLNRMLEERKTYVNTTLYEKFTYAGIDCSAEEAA

On to `c1ccc(-c2ccc(-c3csc(Nc4cccnc4)n3)s2)nc1` [Number 37, pyridin-3-yl-[(4-(5-pyridin-2-yl-thiophen-2-yl)-thiazol-2-yl]-amine Hydrobromide], for which the IC50 on Tie-2 is 2.5 µM; at c-Met, greater than 50 µM; at KDR, greater than 50 µM.

In the case of `CCN(CC)c1ccc(-c2csc(N)n2)cc1` [Number 23, 4-(4-diethylamino-phenyl)-thiazol-2-ylamine Hydrobromide], the concentration for half-maximal inhibition (IC50) on Tie-2 was 5 µM; on c-Met it was greater than 50 µM; on KDR, 2 µM.

Regarding `CCN(CC)c1ccc(-c2csc(Nc3cccnc3)n2)cc1` [Number 30], the concentration for half-maximal inhibition (IC50) on Tie-2 was 0.8 µM; at c-Met it was greater than 50 µM; at KDR it was 3 µM.

For the molecule `c1cc(Nc2nc(-c3ccc(N4CCCC4)cc3)cs2)ccn1` [Number 15, pyridin-4-yl-[4-(4-pyrrolidin-1-yl-phenyl)-thiazol-2-yl]-amine Hydrobromide], the concentration for half-maximal inhibition (IC50) on Tie-2 is 1 µM; on c-Met it was greater than 10 µM; at KDR, 5 µM.

For `CCN(CC)c1ccc(-c2csc(NC)n2)cc1` [Number 25, [4-(4-diethylamino-phenyl)-thiazol-2-yl]-methyl-amine Hydrobromide], the IC50 is 1 µM at Tie-2, greater than 50 µM at c-Met and 5 µM on KDR.

With `c1ccc(Nc2nccs2)cc1` [Number 3, phenyl-thiazol-2-yl-amine Hydrochloride], the figures for the IC50 on c-Met and at KDR were greater than 50 µM and 3.5 µM, respectively.

With `c1cc(-c2nc(-c3ccc(N4CCCC4)cc3)co2)ccn1` [Number 16, 4-[4-(4-pyrzolidin-1-yl-phenyl)-oxazol-2-yl]-pyridine Hydrobromide], the IC50 at Tie-2, at c-Met and on KDR was greater than 50 µM each time.

For the molecule `Nc1nc(-c2ccc(N3CCCC3)cc2)cs1` [Number 5, 4-(4-pyrrolidin-1-yl-phenyl)-thiazol-2-ylamine Hydrobromide], the 50% inhibitory concentration (IC50) at Tie-2 stood at 2.5 µM; at c-Met, 5 µM; at KDR, 5 µM.

For `CCN(CC)c1ccc(-c2csc(N(C)c3ccccc3)n2)cc1` [Number 27, [4-(4-diethylamino-phenyl)-thiazol-2-yl]-methyl-phenyl-amine Hydrobromide], the IC50 on Tie-2, on c-Met and at KDR was greater than 50 µM in each case.

Regarding `c1cc(Nc2nc(-c3ccc(N4CCCC4)cc3)cs2)ccc1Nc1nc(-c2ccc(N3CCCC3)cc2)cs1` [Number 18, N,N′-bis-[4-(4-pyrrolidin-1-yl-phenyl)-thiazol-2-yl]-benzene-1,4-diamine Dihydrobromide], the IC50 on Tie-2 is greater than 10 µM; at c-Met, greater than 50 µM; at KDR it was greater than 10 µM.

On to `Nc1nc(-c2ccc(N3CCCC3)cc2)co1` [Number 6, 4-(4-pyrrolidin-1-yl-phenyl)-oxazol-2-ylamine Hydrobromide], for which the values for the half-maximal inhibitory concentration (IC50) on Tie-2, at c-Met and on KDR were 5 µM, greater than 50 µM and greater than 25 µM, respectively.

For `CCN(CC)c1ccc(-c2csc(NCc3ccccc3)n2)cc1` [Number 28, benzyl-[4-(4-diethylamino-phenyl)-thiazol-2-yl]-amine Hydrobromide], the 50% inhibitory concentration (IC50) at Tie-2, on c-Met and on KDR was greater than 50 µM each time.

For the molecule `c1ccc(CNc2nc(-c3ccc(N4CCCC4)cc3)cs2)cc1` [Number 10, benzyl-[4-(4-pyrrolidin-1-yl-phenyl)-thiazol-2-yl]-amine Hydrobromide], the 50% inhibitory concentration (IC50) at Tie-2 is 5 µM; on c-Met it was greater than 50 µM; at KDR, greater than 50 µM.

As for `c1cncc(-c2nc(-c3ccc(N4CCCC4)cc3)co2)c1` [Number 14, 3-[4-(4-pyrrolidin-1-yl-phenyl)-oxazol-2-yl]-pyridine Hydrobromide], the half-inhibitory concentration (IC50) on Tie-2 is 5 µM; at c-Met it was greater than 25 µM; at KDR, greater than 50 µM.

`CNc1nc(-c2ccc(-c3ccccn3)s2)cs1` [Number 36, methyl-[4-(5-pyridin-2-yl-thiophen-2-yl)-thiazol-2-yl]-amine Hydrobromide]: the IC50 at Tie-2 is greater than 20 µM; on c-Met, greater than 50 µM; on KDR, greater than 10 µM.

For `c1ccc(Nc2nc(-c3ccc(N4CCCC4)cc3)cs2)cc1` [Number 8, phenyl-[4-(4-pyrrolidin-1-yl-phenyl)-thiazol-2-yl]-amine Hydrobromide], the 50% inhibitory concentration (IC50) was 5 µM on Tie-2, greater than 25 µM on c-Met and 2.5 µM at KDR.

Consider `c1ccc(Nc2nc(-c3ccc(N4CCCC4)cc3)cs2)nc1` [Number 12, Hydrobromide], for which the IC50 at Tie-2 was greater than 50 µM.

Consider `CNc1nccs1` [Number 2, methyl-thiazol-2-yl-amine Hydrochloride], for which the IC50 on Tie-2 is greater than 50 µM; on c-Met, greater than 50 µM; at KDR it was 5 µM.

`O=[N+]([O-])c1ccc(Nc2nc(-c3ccc(N4CCCC4)cc3)cs2)cc1` [Number 17, Dihydrobromide]: the figures for the half-inhibitory concentration (IC50) on Tie-2, on c-Met and at KDR were 2 µM, greater than 25 µM and greater than 10 µM, respectively.

For the molecule `CCN(CC)c1ccc(-c2csc(Nc3ccccc3)n2)cc1` [Number 26, [4-(4-Diethylamino-phenyl)-thiazol-2-yl]-phenyl-amine Hydrobromide], the 50% inhibitory concentration (IC50) at Tie-2 is 2 µM; on c-Met it was greater than 25 µM; at KDR it was 2 µM.

Take `Cc1nc(-c2ccc(N3CCCC3)cc2)cs1` [Number 21, 2-methyl-4-(4-pyrrolidin-1-yl-phenyl)-thiazole Hydrobromide]: the half-maximal inhibitory concentration (IC50) is 2.5 µM on Tie-2 and greater than 50 µM on c-Met.

Take `FC(F)(F)c1cccc(Nc2nc(-c3ccc(N4CCCC4)cc3)cs2)c1` [Number 19, [4-(4-pyrrolidin-1-yl-phenyl)-thiazol-2-yl]-(3-trifluoromethyl-phenyl)-amine Hydrobromide]: the IC50 on Tie-2 was 2 µM; at c-Met it was greater than 50 µM; on KDR it was 2 µM.

In the case of `O=C(O)c1ccc(Nc2nc(-c3ccc(N4CCCC4)cc3)cs2)cc1` [Number 20, 4-[4-(4-pyrrolidin-1-yl-phenyl)-thiazol-2-ylamino]-benzoic Acid Hydrobromide], the IC50 is less than 1 µM on Tie-2, greater than 10 µM on c-Met and 1 µM on KDR.

For `CCN(CC)c1ccc(-c2csc(C)n2)cc1` [Number 33, diethyl-[4-(2-methyl-thiazol-4-yl)-phenyl]-amine Hydrobromide], the results for the IC50 on Tie-2, at c-Met and on KDR were 5 µM, greater than 50 µM and 5 µM, respectively.

For the molecule `c1ccc(CCNc2nc(-c3ccccn3)cs2)cc1` [Number 35, phenylethyl-(4-pyridin-2-yl-thiazol-2-yl)-amine Hydrobromide], the IC50 on Tie-2 stood at 1 µM; on c-Met, 2 µM; on KDR, 1 µM.

Consider `CCN(CC)c1ccc(-c2csc(Nc3cccc(C(F)(F)F)c3)n2)cc1` [Number 32, [4-(4-diethylamino-phenyl)-thiazol-2-yl-(3-trifluoromethyl-phenyl)-amine Hydrobromide], for which the results for the 50% inhibitory concentration (IC50) at Tie-2, on c-Met and at KDR were 3 µM, greater than 50 µM and 5 µM, respectively.

Consider `c1cncc(Nc2nc(-c3ccc(N4CCCC4)cc3)cs2)c1` [Number 13, Hydrobromide], for which the 50% inhibitory concentration (IC50) at Tie-2 is 1 µM; on c-Met, greater than 10 µM; on KDR it was 2 µM.

Take `CNc1nc(-c2ccc(N3CCCC3)cc2)cs1` [Number 7, methyl-[4-(4-pyrrolidin-1-yl-phenyl)-thiazol-2-yl]-amine Hydrobromide]: the IC50 is 3 µM at Tie-2, greater than 50 µM on c-Met and 7 µM at KDR.

Turning to `CCN(CC)c1ccc(-c2csc(Nc3ccccn3)n2)cc1` [Number 29, [4-(4-diethylamino-phenyl)-thiazol-2-yl)-pyridin-2-yl-amine Hydrobromide], the IC50 at Tie-2, at c-Met and on KDR was greater than 50 µM each time.

`c1ccc(CCNc2nc(-c3ccc(N4CCCC4)cc3)cs2)cc1` [Number 11, phenylethyl-[4-(4-pyrrolidin-1-yl-phenyl)-thiazol-2-yl]-amine Hydrobromide]: at Tie-2, the IC50 is greater than 50 µM.

Broadly, the IC50 is the point on the concentration scale where inhibition reaches its midpoint.
